The target of this experiment is T1, Axl (Homo sapiens, UniProt P30530).
T1 construct: endogenous in cells; host or cells: HeLa cells
T1 sequence (P30530 26-894): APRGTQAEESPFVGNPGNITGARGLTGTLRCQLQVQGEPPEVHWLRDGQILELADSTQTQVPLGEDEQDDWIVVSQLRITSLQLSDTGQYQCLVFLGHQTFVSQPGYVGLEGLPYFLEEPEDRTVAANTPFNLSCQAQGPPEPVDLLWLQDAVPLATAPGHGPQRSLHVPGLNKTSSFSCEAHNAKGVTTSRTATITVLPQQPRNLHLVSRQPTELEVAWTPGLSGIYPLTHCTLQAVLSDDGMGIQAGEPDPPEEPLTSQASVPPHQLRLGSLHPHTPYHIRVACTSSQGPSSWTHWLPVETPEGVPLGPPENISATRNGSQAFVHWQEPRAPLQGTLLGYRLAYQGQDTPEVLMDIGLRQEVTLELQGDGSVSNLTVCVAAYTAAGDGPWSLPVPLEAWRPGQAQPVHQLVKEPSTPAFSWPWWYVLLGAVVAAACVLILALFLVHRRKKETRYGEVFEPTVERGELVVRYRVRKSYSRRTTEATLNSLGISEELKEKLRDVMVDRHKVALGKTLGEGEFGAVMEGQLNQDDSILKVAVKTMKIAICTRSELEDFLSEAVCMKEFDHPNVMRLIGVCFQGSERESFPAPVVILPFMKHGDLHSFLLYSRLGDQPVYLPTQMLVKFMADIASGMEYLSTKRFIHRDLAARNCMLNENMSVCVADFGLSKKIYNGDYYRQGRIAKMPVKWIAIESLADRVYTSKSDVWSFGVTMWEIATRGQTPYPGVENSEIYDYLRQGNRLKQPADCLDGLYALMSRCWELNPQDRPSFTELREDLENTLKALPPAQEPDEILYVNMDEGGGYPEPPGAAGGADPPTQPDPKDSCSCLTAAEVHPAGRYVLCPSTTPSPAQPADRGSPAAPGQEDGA
Briefly: Phospho-Akt in-cell Western assay. To be noted: Hela cells, Axl antibody cross-linking stimulation, phospho-Akt readout. It is filed as cell-based. On the procedure: Phospho-Akt in-Cell Western Assay
The compounds of the invention were tested in the following assay for their ability to inhibit Axl activity.
• Cell culture plate: 96 well assay plate (Corning 3610), white, clear bottom, tissue-culture treated. • Cells: Hela cells. • Starvation medium: For Axl stimulation: 0.5% FCS (fetal calf serum) in DMEM, plus Axl/Fc (extracellular domain of AXL fused to immunoglobulin Fc region) (R&D, 154-AL) 500 ng/mL. • For EGF (epidermal growth factor) stimulation: 0.5% FCS in DMEM (Dulbecco's modified Eagles medium). • Poly-L-Lysine 0.01% solution (the working solution): 10 μg/ml, dilute In PBS (phosphate buffered saline). • Axl antibody cross-linking: • 1st: Mouse anti-Axl (R&D, MAB154). • 2nd: Biotin-SP-conjugated AffiniPure goat anti-mouse IgG (H+L) (Jackson ImmunoResearch #115-065-003). • Fixing buffer: 4% formaldehyde in PBS. • Wash buffer: 0.1% TritonX-100 in PBS. • Quenching buffer: 3% H2O2, 0.1% Azide in wash buffer, Azide and hydrogen peroxide (H2O2) are added fresh. • Blocking buffer: 5% BSA in TBST (tris buffered saline plus 0.1% Tween 20). • Primary antibody: Rabbit anti-human Phospho-Akt antibody (Cell Signaling 9271): 1×250 diluted in blocking buffer. • Secondary antibody: HRP (horse radish peroxidase)-conjugated Goat anti-Rabbit secondary, stock solution: Jackson ImmunoResearch (Goat anti-Rabbit HRP, #111-035-144) 1:1 diluted in glycerol, store at −20° C. The working solution: 1×2000 dilution of stock in blocking buffer. • Chemiluminescent working solution (Pierce, 37030): SuperSignal ELISA (enzyme linked immunosorbant assay) Pico Chemiluminescent substrate. • Crystal Violet solution: Stock: 2.5% Crystal violet in methanol, filtered and kept at ambient temperature. The working solution: dilute the stock 1:20 with PBS immediately before use. • 10% SDS: working solution: 5% SDS (sodium dodecylsulfate), diluted in PBS Methods: Day 1:
A 96 well TC (tissue culture treated) plate was coated with 10 μg/mL poly-L-Lysine at 37° C. for 30 min, washed twice with PBS, and air-dried for 5 minutes before cells were added. Hela cells were seeded at 10,000 cells/well and the cells were starved in 100 μL starvation medium containing Axl/Fc for 24 hrs.
The cells were pre-treated with test compounds by adding 100 μL of 2× test compound to the starvation medium on the cells. The cells were incubated at 37° C. for 1 hr before stimulation.
The cells were stimulated by Axl-antibody cross-linking as follows: A 5×1st/2nd Axl antibody mixture was made (37.5 μg/mL 1st/100 μg/mL 2nd) in starvation medium and nutated at 4° C. with thorough mixing for 1-2 hours for clustering. The resulting mix was warmed to 37° C. 50 μL of 5× Axl 1st/2nd of antibody cluster was added to the cells and the cells were incubated at 37° C. for 5 min.
After 5 minutes stimulation, the plate was flicked to remove medium and the plate was tapped onto paper towels. Formaldehyde (4.0% in PBS, 100 μL) was added to fix the cells and the cells were incubated at ambient temperature for 20 min without shaking.
The cells were washed with a plate washer buffer to remove the formaldehyde solution. The plate was flicked to removed excess wash buffer and tapped onto paper towels. Quenching buffer (100 μL) was added to each well and the cells were incubated at ambient temperature for 20 minutes without shaking.
The cells were washed with a plate washer buffer to remove the quenching buffer. Blocking buffer (100 μL) was added and the cells were incubated at ambient temperature for at least an hour with gentle shaking.
The cells were washed with a plate washer buffer and diluted primary antibody (50 μL) was added to each well (blocking buffer was added to the negative control wells instead). The plates were incubated overnight at 4° C. with gentle shaking.
The wash buffer was removed, diluted secondary antibody (100 μL) was added, and the cells were incubated at ambient temperature for 1 hour with gentle shaking. […]

The term IC50 denotes the concentration at which inhibition is half-maximal. Read a high IC50 as weaker potency in that assay.

Where the note is “Table 8, formula (VI)”, `N#Cc1cccc(-c2nnc(-n3nc(Nc4ccc5c(c4)CCC(N4CCCC4)CC5)nc3N)c3c2C2CCC3CC2)c1` (stereo not shown) [Compound 31, 1-(4-(3-cyanophenyl)-5,8-ethano-5,6,7,8-tetrahydrophthalazine-1-yl)-N^3-(7-(pyrrolidin-1-yl)-6,7,8,9-tetrahydro-5H-benzo[7]annulene-2-yl)-1H-1,2,4-triazole-3,5-diamine] displayed an IC50 of less than 1000 nM.

Take `CCOc1ccc(C)cc1-c1nnc(-n2nc(Nc3ccc4c(c3)CCC(N3CCCC3)CC4)nc2N)c2c1C1CCC2CC1` (stereo not shown) [Compound 32, 1-(4-(2-ethoxy-5-methylphenyl)-5,8-ethano-5,6,7,8-tetrahydrophthalazine-1-yl)-N^3-(7-(pyrrolidin-1-yl)-6,7,8,9-tetrahydro-5H-benzo[7]annulene-2-yl)-1H-1,2,4-triazole-3,5-diamine]: the IC50 (Table 8, formula (VI)) was 1000 to 10000 nM.

On to `Cc1cc(F)ccc1-c1nnc(-n2nc(Nc3ccc4c(c3)CCC(N3CCCC3)CC4)nc2N)c2c1C1CCC2CC1` (stereo not shown) [Compound 33, 1-(4-(4-fluoro-2-methylphenyl)-5,8-ethano-5,6,7,8-tetrahydrophthalazine-1-yl)-N^3-(7-(pyrrolidin-1-yl)-6,7,8,9-tetrahydro-5H-benzo[7]annulene-2-yl)-1H-1,2,4-triazole-3,5-diamine], for which the IC50 (Table 8, formula (VI)) was less than 1000 nM.

`Nc1nc(Nc2ccc3c(c2)CCC(N2CCCC2)CC3)nn1-c1nnc(-c2ccncc2)c2c1C1CCC2CC1` (stereo not shown) [Compound 34, 1-(4-(pyridin-4-yl)-5,8-ethano-5,6,7,8-tetrahydrophthalazine-1-yl)-N^3-(7-(pyrrolidin-1-yl)-6,7,8,9-tetrahydro-5H-benzo[7]annulene-2-yl)-1H-1,2,4-triazole-3,5-diamine] registered an IC50 (Table 8, formula (VI)) of less than 1000 nM.

On to `CCN(CC)[C@H]1CCc2ccc(Nc3nc(N)n(-c4cc(-c5ccccc5)c5c(n4)C4CCN5CC4)n3)cc2CC1` [Compound 35, (7S)-1-(1,4-ethano-8-phenyl-1,2,3,4-tetrahydro-1,5-naphthyridin-6-yl)-N^3-(7-(diethylamino)-6,7,8,9-tetrahydro-5H-benzo[7]annulene-2-yl)-1H-1,2,4-triazole-3,5-diamine], for which, under “Table 4, formula (III)”, the IC50 was less than 1000 nM.

Compound `CN(C)[C@H]1CCc2ccc(Nc3nc(N)n(-c4cc(-c5ccccc5)c5c(n4)C4CCN5CC4)n3)cc2CC1` [Compound 36, (7S)-1-(1,4-ethano-8-phenyl-1,2,3,4-tetrahydro-1,5-naphthyridin-6-yl)-N^3-(7-(dimethylamino)-6,7,8,9-tetrahydro-5H-benzo[7]annulene-2-yl)-1H-1,2,4-triazole-3,5-diamine] returned an IC50 (Table 4, formula (III)) greater than 20000 nM.

Turning to `CC(C)N[C@H]1CCc2ccc(Nc3nc(N)n(-c4cc(-c5ccccc5)c5c(n4)C4CCN5CC4)n3)cc2CC1` [Compound 37, (7S)-1-(1,4-ethano-8-phenyl-1,2,3,4-tetrahydro-1,5-naphthyridin-6-yl)-N^3-(7-(isopropylamino)-6,7,8,9-tetrahydro-5H-benzo[7]annulene-2-yl)-1H-1,2,4-triazole-3,5-diamine], under “Table 4, formula (III)”, the IC50 was less than 1000 nM.

With `Nc1nc(Nc2ccc3c(c2)CC[C@@H](NC2CCC2)CC3)nn1-c1cc(-c2ccccc2)c2c(n1)C1CCN2CC1` [Compound 38, (7S)-1-(1,4-ethano-8-phenyl-1,2,3,4-tetrahydro-1,5-naphthyridin-6-yl)-N^3-(7-(cyclobutylamino)-6,7,8,9-tetrahydro-5H-benzo[7]annulene-2-yl)-1H-1,2,4-triazole-3,5-diamine], the half-inhibitory concentration (IC50) (Table 4, formula (III)) was less than 1000 nM.

`CCCN(CCC)[C@H]1CCc2ccc(Nc3nc(N)n(-c4cc(-c5ccccc5)c5c(n4)C4CCN5CC4)n3)cc2CC1` [Compound 39, (7S)-1-(1,4-ethano-8-phenyl-1,2,3,4-tetrahydro-1,5-naphthyridin-6-yl)-N^3-(7-(dipropylamino)-6,7,8,9-tetrahydro-5H-benzo[7]annulene-2-yl)-1H-1,2,4-triazole-3,5-diamine] returned an IC50 (Table 4, formula (III)) of less than 1000 nM.

Where the note is “Table 4, formula (III)”, `CC(C)CN[C@H]1CCc2ccc(Nc3nc(N)n(-c4cc(-c5ccccc5)c5c(n4)C4CCN5CC4)n3)cc2CC1` [Compound 40, (7S)-1-(1,4-ethano-8-phenyl-1,2,3,4-tetrahydro-1,5-naphthyridin-6-yl)-N^3-(7-(isobutylamino)-6,7,8,9-tetrahydro-5H-benzo[7]annulene-2-yl)-1H-1,2,4-triazole-3,5-diamine] gave an IC50 of less than 1000 nM.

As for `CC(C)CN(CC(C)C)[C@H]1CCc2ccc(Nc3nc(N)n(-c4cc(-c5ccccc5)c5c(n4)C4CCN5CC4)n3)cc2CC1` [Compound 41, (7S)-1-(1,4-ethano-8-phenyl-1,2,3,4-tetrahydro-1,5-naphthyridin-6-yl)-N^3-(7-(diisobutylamino)-6,7,8,9-tetrahydro-5H-benzo[7]annulene-2-yl)-1H-1,2,4-triazole-3,5-diamine], under “Table 4, formula (III)”, the IC50 is less than 1000 nM.

`Nc1nc(Nc2ccc(N3CCC(N4CCCC4)CC3)c(F)c2)nn1-c1nc2c(c(-c3ccccc3)n1)CCCC2` [Compound 42, 1-(4-phenyl-5,6,7,8-tetrahydroquinazoline-2-yl)-N^3-(4-(4-(pyrrolidin-1-yl)piperidinyl)-3-fluorophenyl)-1H-1,2,4-triazole-3,5-diamine]: under “Table 9, formula (VII)”, the half-maximal inhibitory concentration (IC50) is less than 1000 nM.

`Nc1nc(Nc2ccc(N3CCC(N4CCCC4)CC3)c(F)c2)nn1-c1nc(-c2ccccc2)c2c(n1)C1CCN2CC1` [Compound 43, 1-(5,8-ethano-4-phenyl-5,6,7,8-tetrahydropyrido[3,2-d]pyrimidin-2-yl)-N^3-(4-(4-(pyrrolidin-1-yl)piperidinyl)-3-fluorophenyl)-1H-1,2,4-triazole-3,5-diamine]: the IC50 (Table 9, formula (VII)) was less than 1000 nM.

For the origin of these results see US9206161B2, “Bridged bicyclic heteroaryl substituted triazoles useful as Axl inhibitors” (Rigel Pharmaceuticals, Inc., priority 2008, dated 2015).
